Data published in patent US10377753B2, “Substituted 4-azaindoles and their use as GluN2B receptor modulators” (Janssen Pharmaceutica NV, priority 2015, dated 2019).

Biological target: cloned human NR1/NR2B ion channels (Homo sapiens (Human), UniProt Q05586+Q13224)
Assay: HNR2BC: effects of test articles on cloned human NR1/NR2B ion channels expressed in mammalian cells (FLIPR calcium flux)
Type: cell-based
Settings: cloned human NR1/NR2B ion channels, Table 5
Procedure, shortened: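 In a stable Tet-On-induced cell line expressing human GluN1/GluN2B, Calcium 5-loaded cells were preincubated 5 min with compound, then stimulated 5 min with glutamate at ~EC80 plus 10 μM glycine, in pH 7.4 HEPES buffer. FLIPR calcium fluorescence was normalized to control wells.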

Chain of cloned human NR1/NR2B ion channels (Q13224 27-1484, other chains not shown): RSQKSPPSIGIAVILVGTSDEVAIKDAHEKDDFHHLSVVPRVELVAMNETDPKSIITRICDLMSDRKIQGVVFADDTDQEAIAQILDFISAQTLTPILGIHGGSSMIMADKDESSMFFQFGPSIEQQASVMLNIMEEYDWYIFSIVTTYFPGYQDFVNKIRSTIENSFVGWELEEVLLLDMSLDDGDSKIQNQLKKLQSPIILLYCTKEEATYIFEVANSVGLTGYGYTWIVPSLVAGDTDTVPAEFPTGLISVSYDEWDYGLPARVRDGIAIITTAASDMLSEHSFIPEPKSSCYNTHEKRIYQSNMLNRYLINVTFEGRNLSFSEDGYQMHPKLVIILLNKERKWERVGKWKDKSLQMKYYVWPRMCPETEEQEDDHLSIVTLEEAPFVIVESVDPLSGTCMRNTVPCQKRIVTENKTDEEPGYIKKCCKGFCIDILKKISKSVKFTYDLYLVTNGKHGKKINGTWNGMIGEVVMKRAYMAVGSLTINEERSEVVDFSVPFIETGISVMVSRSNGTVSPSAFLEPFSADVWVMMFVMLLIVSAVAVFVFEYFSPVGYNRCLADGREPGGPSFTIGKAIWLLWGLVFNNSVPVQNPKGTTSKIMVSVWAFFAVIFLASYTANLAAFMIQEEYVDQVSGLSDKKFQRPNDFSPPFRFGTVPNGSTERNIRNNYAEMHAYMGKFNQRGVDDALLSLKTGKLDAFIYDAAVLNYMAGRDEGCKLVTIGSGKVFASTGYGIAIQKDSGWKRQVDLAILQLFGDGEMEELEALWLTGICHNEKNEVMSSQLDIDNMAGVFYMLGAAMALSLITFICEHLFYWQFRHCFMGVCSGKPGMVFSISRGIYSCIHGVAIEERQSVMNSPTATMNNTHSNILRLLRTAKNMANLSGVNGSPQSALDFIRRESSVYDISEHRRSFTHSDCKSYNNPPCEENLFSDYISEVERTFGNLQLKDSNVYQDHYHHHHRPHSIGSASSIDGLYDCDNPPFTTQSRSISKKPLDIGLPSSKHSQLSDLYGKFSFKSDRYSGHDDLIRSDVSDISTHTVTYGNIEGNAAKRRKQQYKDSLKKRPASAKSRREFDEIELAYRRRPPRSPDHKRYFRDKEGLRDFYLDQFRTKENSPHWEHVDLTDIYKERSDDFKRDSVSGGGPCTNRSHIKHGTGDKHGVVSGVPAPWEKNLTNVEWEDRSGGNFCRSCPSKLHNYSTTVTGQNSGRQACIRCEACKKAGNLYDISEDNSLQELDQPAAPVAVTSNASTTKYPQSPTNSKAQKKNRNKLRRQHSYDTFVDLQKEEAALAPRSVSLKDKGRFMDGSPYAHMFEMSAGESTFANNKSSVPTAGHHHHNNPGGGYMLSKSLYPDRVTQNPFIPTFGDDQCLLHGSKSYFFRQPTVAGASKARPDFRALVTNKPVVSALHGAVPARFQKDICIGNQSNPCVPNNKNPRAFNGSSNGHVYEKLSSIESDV

Row | SMILES | IC50 [µM]
1 | O=C(Cn1cc(F)c2ncc(-c3ccccc3F)cc21)N1CC(F)C1 [Example 507, 1-(3-Fluoroazetidin-1-yl)-2-[3-fluoro-6-(2-fluorophenyl)pyrrolo[3,2-b]pyridin-1-yl]ethanone] | 0.02
2 | O=C(Cn1cc(F)c2ncc(-c3ccc(F)c(C(F)(F)F)c3)cc21)N1CC(F)C1 [Example 508, 1-(3-Fluoroazetidin-1-yl)-2-[3-fluoro-6-[4-fluoro-3-(trifluoromethyl)phenyl]pyrrolo[3,2-b]pyridin-1-yl]ethanone] | 0.126
3 | CN(C)C(=O)Cn1cc(F)c2ncc(-c3cc(F)cc(F)c3)cc21 [Example 509, 2-[6-(3,5-Difluorophenyl)-3-fluoro-pyrrolo[3,2-b]pyridin-1-yl]-N,N-dimethyl-acetamide] | 0.0316
4 | CN(C)C(=O)Cn1cc(F)c2ncc(-c3cccc(F)c3)cc21 [Example 510, 2-[3-Fluoro-6-(3-fluorophenyl)pyrrolo[3,2-b]pyridin-1-yl]-N,N-dimethyl-acetamide] | 0.0398
5 | CN(C)C(=O)Cn1cc(Cl)c2ncc(-c3ccccc3F)cc21 [Example 512, 2-[3-Chloro-6-(2-fluorophenyl)pyrrolo[3,2-b]pyridin-1-yl]-N,N-dimethyl-acetamide] | 0.316
6 | Cc1cccc(-c2cnc3c(Cl)cn(CC(=O)N(C)C)c3c2)c1F [Example 513, 2-[3-Chloro-6-(2-fluoro-3-methyl-phenyl)pyrrolo[3,2-b]pyridin-1-yl]-N,N-dimethyl-acetamide] | 0.0501
7 | CN(C)C(=O)Cn1cc(Cl)c2ncc(-c3ccccc3)cc21 [Example 514, 2-(3-Chloro-6-phenyl-pyrrolo[3,2-b]pyridin-1-yl)-N,N-dimethyl-acetamide] | 0.126
8 | Cc1cccc(-c2cnc3c(Cl)cn(CC(=O)N(C)C)c3c2)c1 [Example 515, 2-[3-Chloro-6-(m-tolyl)pyrrolo[3,2-b]pyridin-1-yl]-N,N-dimethyl-acetamide] | 0.1
9 | CN(C)C(=O)Cn1cc(Cl)c2ncc(-c3ccc(F)c(C(F)(F)F)c3)cc21 [Example 516, 2-[3-Chloro-6-[4-fluoro-3-(trifluoromethyl)phenyl]pyrrolo[3,2-b]pyridin-1-yl]-N,N-dimethyl-acetamide] | 0.2
10 | CN(C)C(=O)Cn1cc(Cl)c2ncc(-c3cccc(C(F)(F)F)c3F)cc21 [Example 517, 2-[3-Chloro-6-[2-fluoro-3-(trifluoromethyl)phenyl]pyrrolo[3,2-b]pyridin-1-yl]-N,N-dimethyl-acetamide] | 0.1
11 | CN(C)C(=O)Cn1cc(Cl)c2ncc(-c3ccc(F)c(F)c3F)cc21 [Example 518, 2-[3-Chloro-6-(2,3,4-trifluorophenyl)pyrrolo[3,2-b]pyridin-1-yl]-N,N-dimethyl-acetamide] | 0.0631
12 | Cc1c(F)ccc(-c2cnc3c(Cl)cn(CC(=O)N(C)C)c3c2)c1F [Example 519, 2-[3-Chloro-6-(2,4-difluoro-3-methyl-phenyl)pyrrolo[3,2-b]pyridin-1-yl]-N,N-dimethyl-acetamide] | 0.0631
13 | CN(C)C(=O)Cn1cc(Cl)c2ncc(-c3ccc(F)c(Cl)c3)cc21 [Example 520, 2-[3-Chloro-6-(3-chloro-4-fluoro-phenyl)pyrrolo[3,2-b]pyridin-1-yl]-N,N-dimethyl-acetamide] | 0.0794
14 | O=C(Cn1cc(Cl)c2ncc(-c3ccccc3F)cc21)N1CCC1 [Example 521, 1-(Azetidin-1-yl)-2-[3-chloro-6-(2-fluorophenyl)pyrrolo[3,2-b]pyridin-1-yl]ethanone] | 0.126
15 | Cc1cccc(-c2cnc3c(Cl)cn(CC(=O)N4CCC4)c3c2)c1F [Example 522, 1-(Azetidin-1-yl)-2-[3-chloro-6-(2-fluoro-3-methyl-phenyl)pyrrolo[3,2-b]pyridin-1-yl]ethanone] | 0.0794
16 | O=C(Cn1cc(Cl)c2ncc(-c3ccc(F)c(C(F)(F)F)c3)cc21)N1CCC1 [Example 523, 1-(Azetidin-1-yl)-2-[3-chloro-6-[4-fluoro-3-(trifluoromethyl)phenyl]pyrrolo[3,2-b]pyridin-1-yl]ethanone] | 0.158
17 | O=C(Cn1cc(Cl)c2ncc(-c3cccc(C(F)(F)F)c3F)cc21)N1CCC1 [Example 524, 1-(Azetidin-1-yl)-2-[3-chloro-6-[2-fluoro-3-(trifluoromethyl)phenyl]pyrrolo[3,2-b]pyridin-1-yl]ethanone] | 0.0794
18 | Cc1c(F)ccc(-c2cnc3c(Cl)cn(CC(=O)N4CCC4)c3c2)c1F [Example 525, 1-(Azetidin-1-yl)-2-[3-chloro-6-(2,4-difluoro-3-methyl-phenyl)pyrrolo[3,2-b]pyridin-1-yl]ethanone] | 0.0501
19 | O=C(Cn1cc(Cl)c2ncc(-c3cccc(Cl)c3)cc21)N1CCC1 [Example 526, 1-(Azetidin-1-yl)-2-[3-chloro-6-(3-chlorophenyl)pyrrolo[3,2-b]pyridin-1-yl]ethanone] | 0.0631
20 | O=C(Cn1cc(Cl)c2ncc(-c3ccc(F)c(Cl)c3)cc21)N1CCC1 [Example 527, 1-(Azetidin-1-yl)-2-[3-chloro-6-(3-chloro-4-fluoro-phenyl)pyrrolo[3,2-b]pyridin-1-yl]ethanone] | 0.0501
21 | O=C(Cn1cc(Cl)c2ncc(-c3cccc(Cl)c3F)cc21)N1CCC1 [Example 528, 1-(Azetidin-1-yl)-2-[3-chloro-6-(3-chloro-2-fluoro-phenyl)pyrrolo[3,2-b]pyridin-1-yl]ethanone] | 0.0398
22 | O=C(Cn1cc(Cl)c2ncc(-c3cccc(C(F)F)c3)cc21)N1CCC1 [Example 529, 1-(Azetidin-1-yl)-2-[3-chloro-6-[3-(difluoromethyl)phenyl]pyrrolo[3,2-b]pyridin-1-yl]ethanone] | 0.0794
23 | O=C(Cn1cc(Cl)c2ncc(-c3cccc(F)c3)cc21)N1CCC1 [Example 530, 1-(Azetidin-1-yl)-2-[3-chloro-6-(3-fluorophenyl)pyrrolo[3,2-b]pyridin-1-yl]ethanone] | 0.0398
24 | CN(C)C(=O)Cn1cc(Cl)c2ncc(-c3cccc(F)c3)cc21 [Example 531, 2-[3-Chloro-6-(3-fluorophenyl)pyrrolo[3,2-b]pyridin-1-yl]-N,N-dimethyl-acetamide] | 0.0501
25 | O=C(Cn1cc(Cl)c2ncc(-c3cc(F)cc(F)c3)cc21)N1CCC1 [Example 532, 1-(Azetidin-1-yl)-2-[3-chloro-6-(3,5-difluorophenyl)pyrrolo[3,2-b]pyridin-1-yl]ethanone] | 0.0501
26 | CCc1cccc(-c2cnc3c(Cl)cn(CC(=O)N4CCC4)c3c2)c1 [Example 533, 1-(Azetidin-1-yl)-2-[3-chloro-6-(3-ethylphenyl)pyrrolo[3,2-b]pyridin-1-yl]ethanone] | 0.0501
27 | CN(C)C(=O)Cn1cc(Cl)c2ncc(-c3cccc(Cl)c3)cc21 [Example 534, 2-[3-Chloro-6-(3-chlorophenyl)pyrrolo[3,2-b]pyridin-1-yl]-N,N-dimethyl-acetamide] | 0.0316
28 | O=C(Cn1cc(Cl)c2ncc(-c3ccccc3F)cc21)N1CC(F)C1 [Example 535, 2-[3-Chloro-6-(2-fluorophenyl)pyrrolo[3,2-b]pyridin-1-yl]-1-(3-fluoroazetidin-1-yl)ethanone] | 0.2
29 | Cc1cccc(-c2cnc3c(Cl)cn(CC(=O)N4CC(F)C4)c3c2)c1F [Example 536, 2-[3-Chloro-6-(2-fluoro-3-methyl-phenyl)pyrrolo[3,2-b]pyridin-1-yl]-1-(3-fluoroazetidin-1-yl)ethanone] | 0.0251
